# Results taken from BindingDB's records for PubMed 11714872 (Astrazeneca R&D, 2001).
# Experiments:
# [1] = molecular target: T1, 5-hydroxytryptamine receptor 1A (Rattus norvegicus, UniProt P19327)
# T1 sequence (P19327 whole entry): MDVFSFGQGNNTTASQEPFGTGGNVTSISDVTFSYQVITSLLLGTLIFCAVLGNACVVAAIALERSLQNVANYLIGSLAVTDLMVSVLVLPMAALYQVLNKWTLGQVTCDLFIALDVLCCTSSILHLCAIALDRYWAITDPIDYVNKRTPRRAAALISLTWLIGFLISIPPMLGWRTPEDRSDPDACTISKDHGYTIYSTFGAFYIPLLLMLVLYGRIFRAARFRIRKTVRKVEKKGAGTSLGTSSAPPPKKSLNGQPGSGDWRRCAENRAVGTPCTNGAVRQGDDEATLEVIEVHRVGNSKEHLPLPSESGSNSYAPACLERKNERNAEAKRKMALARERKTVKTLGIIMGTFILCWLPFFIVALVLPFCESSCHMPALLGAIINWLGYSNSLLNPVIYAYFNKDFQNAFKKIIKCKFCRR
# [2] = molecular target: 5-hydroxytryptamine receptor 2A (Rattus norvegicus, UniProt P14842)
# Chain of 5-hydroxytryptamine receptor 2A (P14842 whole entry): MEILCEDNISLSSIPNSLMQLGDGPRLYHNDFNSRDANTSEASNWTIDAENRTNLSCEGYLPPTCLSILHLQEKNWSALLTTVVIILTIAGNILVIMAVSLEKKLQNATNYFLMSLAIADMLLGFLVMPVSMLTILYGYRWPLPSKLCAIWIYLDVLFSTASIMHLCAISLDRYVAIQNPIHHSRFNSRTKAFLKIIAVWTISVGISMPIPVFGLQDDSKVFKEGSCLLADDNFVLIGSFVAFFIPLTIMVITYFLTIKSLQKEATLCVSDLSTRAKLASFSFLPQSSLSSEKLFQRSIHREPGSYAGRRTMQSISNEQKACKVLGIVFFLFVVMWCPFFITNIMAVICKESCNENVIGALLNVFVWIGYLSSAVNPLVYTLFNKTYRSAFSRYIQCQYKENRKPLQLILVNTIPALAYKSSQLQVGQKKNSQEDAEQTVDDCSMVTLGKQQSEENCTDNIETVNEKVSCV
# [3] = molecular target: 5-hydroxytryptamine receptor 7 (Rattus norvegicus, UniProt P32305)
# Chain of 5-hydroxytryptamine receptor 7 (P32305 whole entry): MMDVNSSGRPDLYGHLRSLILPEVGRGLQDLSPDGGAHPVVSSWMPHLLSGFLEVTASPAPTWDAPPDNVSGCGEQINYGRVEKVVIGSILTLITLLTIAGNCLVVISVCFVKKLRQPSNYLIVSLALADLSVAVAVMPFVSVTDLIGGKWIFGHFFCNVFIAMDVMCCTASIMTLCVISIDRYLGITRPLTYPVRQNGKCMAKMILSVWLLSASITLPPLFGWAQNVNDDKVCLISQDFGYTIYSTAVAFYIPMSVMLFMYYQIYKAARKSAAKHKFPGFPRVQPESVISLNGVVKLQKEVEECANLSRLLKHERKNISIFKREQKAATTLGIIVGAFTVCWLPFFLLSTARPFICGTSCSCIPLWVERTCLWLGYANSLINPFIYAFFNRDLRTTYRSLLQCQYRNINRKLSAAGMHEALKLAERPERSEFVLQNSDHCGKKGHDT
# [4] = molecular target: 5-hydroxytryptamine receptor 6 (Rattus norvegicus, UniProt P31388)
# Chain of 5-hydroxytryptamine receptor 6 (P31388 whole entry): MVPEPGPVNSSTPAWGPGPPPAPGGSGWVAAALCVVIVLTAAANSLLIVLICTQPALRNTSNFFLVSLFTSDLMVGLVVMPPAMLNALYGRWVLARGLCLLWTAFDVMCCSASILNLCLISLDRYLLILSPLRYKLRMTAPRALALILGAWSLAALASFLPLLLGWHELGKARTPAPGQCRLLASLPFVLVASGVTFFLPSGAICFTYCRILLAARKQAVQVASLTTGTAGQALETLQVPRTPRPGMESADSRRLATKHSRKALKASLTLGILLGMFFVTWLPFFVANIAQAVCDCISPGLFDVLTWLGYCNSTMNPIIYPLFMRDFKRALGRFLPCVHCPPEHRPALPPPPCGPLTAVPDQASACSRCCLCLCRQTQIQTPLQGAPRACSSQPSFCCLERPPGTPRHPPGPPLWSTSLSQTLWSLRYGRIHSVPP
# [5] = molecular target: Sodium-dependent serotonin transporter (Rattus norvegicus, UniProt P31652)
# Chain of Sodium-dependent serotonin transporter (P31652 whole entry): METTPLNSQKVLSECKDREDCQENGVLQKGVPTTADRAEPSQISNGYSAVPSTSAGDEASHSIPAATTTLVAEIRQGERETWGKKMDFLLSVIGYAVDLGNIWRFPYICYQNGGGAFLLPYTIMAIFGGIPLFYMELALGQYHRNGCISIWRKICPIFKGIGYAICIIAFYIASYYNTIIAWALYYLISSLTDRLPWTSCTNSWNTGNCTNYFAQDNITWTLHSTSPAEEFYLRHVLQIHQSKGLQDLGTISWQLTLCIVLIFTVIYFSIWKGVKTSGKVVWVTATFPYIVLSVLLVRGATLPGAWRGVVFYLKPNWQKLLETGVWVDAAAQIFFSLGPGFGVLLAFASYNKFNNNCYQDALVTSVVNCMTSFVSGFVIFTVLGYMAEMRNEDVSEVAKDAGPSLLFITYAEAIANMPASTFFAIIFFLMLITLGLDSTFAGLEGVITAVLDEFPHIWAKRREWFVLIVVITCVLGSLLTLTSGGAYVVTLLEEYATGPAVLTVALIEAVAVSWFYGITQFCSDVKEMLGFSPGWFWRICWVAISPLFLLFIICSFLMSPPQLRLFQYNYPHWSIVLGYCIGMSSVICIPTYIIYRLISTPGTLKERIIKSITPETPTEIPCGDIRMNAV
# [6] = molecular target: T2, 5-hydroxytryptamine receptor 3A (Rattus norvegicus, UniProt P35563)
# T2 sequence (P35563 whole entry): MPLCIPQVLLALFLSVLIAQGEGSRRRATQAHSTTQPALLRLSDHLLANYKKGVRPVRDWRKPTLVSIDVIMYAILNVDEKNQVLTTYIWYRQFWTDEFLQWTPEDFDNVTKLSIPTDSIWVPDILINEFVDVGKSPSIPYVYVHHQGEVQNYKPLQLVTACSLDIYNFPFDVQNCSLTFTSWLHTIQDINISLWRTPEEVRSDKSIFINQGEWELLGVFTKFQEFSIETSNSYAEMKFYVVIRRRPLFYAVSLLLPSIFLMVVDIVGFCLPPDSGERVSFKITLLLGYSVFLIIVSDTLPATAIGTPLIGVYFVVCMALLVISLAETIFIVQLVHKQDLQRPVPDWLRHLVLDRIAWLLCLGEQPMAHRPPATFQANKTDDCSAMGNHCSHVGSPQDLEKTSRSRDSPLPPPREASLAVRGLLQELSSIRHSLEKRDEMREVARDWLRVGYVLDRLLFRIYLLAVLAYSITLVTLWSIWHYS
# [7] = molecular target: T3, 5-hydroxytryptamine receptor 2C (Rattus norvegicus, UniProt P08909)
# T3 sequence (P08909 whole entry): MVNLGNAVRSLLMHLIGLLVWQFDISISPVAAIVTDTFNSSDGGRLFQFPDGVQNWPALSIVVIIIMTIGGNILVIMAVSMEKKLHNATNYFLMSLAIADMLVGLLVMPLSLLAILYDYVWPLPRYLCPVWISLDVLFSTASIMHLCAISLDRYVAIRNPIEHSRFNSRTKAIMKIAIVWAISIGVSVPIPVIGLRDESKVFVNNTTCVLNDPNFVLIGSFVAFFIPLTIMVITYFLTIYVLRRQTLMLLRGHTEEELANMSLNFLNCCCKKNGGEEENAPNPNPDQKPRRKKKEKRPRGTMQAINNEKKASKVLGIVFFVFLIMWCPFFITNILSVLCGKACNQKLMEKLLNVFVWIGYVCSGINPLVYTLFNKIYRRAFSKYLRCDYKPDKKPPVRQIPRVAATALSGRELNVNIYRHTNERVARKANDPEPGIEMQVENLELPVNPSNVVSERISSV
# [8] = molecular target: 5-hydroxytryptamine receptor 1B (Bos mutus, UniProt L8IGV0)
# Chain of 5-hydroxytryptamine receptor 1B (L8IGV0 whole entry): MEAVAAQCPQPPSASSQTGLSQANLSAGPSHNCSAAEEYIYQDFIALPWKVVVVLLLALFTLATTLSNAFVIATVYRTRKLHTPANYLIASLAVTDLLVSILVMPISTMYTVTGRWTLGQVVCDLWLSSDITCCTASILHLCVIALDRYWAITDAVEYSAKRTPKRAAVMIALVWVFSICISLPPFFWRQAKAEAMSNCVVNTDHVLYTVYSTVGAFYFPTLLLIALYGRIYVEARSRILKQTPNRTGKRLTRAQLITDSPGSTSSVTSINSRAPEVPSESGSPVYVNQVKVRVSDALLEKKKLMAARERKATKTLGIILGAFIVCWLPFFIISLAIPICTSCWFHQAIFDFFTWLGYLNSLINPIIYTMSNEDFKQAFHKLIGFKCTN
Ki [1] [nM],Ki [2] [nM],Ki [3] [nM],Ki [4] [nM],Ki [5] [nM],Ki [6] [nM],Ki [7] [nM],Ki [8] [nM],SMILES
0.26,1000,88,> 10000,> 10000,500,500,,"CCCN(C(C)C)[C@H]1COc2cccc(C(N)=O)c2C1 [(R)-3-[Isopropyl(propyl)amino]-3,4-dihydro-2H-1-benzopyran-5-carboxamide]"
4.5,> 10000,240,> 10000,,500,500,1400,"CCCN(C(C)C)[C@H]1COc2cccc(C(=O)NC(C)C)c2C1 [(R)-N-Isopropyl-3-[isopropyl(propyl)amino]-3,4-dihydro-2H-1-benzopyran-5-carboxamide]"
